# Where two headings read alike, the source gives them in different places. Where a SMILES comes first, the peptide text is derived from it. Bridges are numbered along the chain shown (N, C = ends). Where no end group is shown, it is not given here. [ ]: non-standard residue; d: D form. 2Nal = N[C@@H](Cc1ccc2ccccc2c1)C(=O)O; Cit = NC(=O)NCCC[C@H](N)C(=O)O
# Experiments:
# CXCR4 [1] = biological target: T1, CXCR4 (Homo sapiens, UniProt P61073); test: Calcium mobilization assay (FLIPR Tetra) in U87.CD4.CXCR4 cells; format: cell-based; settings: for agonist activity on intracellular calcium flux: in absence of CXCL12; for IC50: read-out: IC50 Calcium signaling (CXCL12-induced)
# Description: U87.CD4.CXCR4 cells were seeded at 2x10^4 cells per well in gelatin-coated black-walled 96-well plates [0.1% gelatin in DPBS, incubated at RT for two hours and washed once with DPBS] and incubated at 37°C and 5% CO2 overnight. […] Fluo-2 AM loaded cells were washed with assay buffer before being incubated in the FLIPR Tetra system at 37°C for five minutes. At the start of the kinetic measurement, compounds were added to the cell plate by the internal robotic system followed by an incubation period of 10 minutes during which changes in the intracellular calcium level were continuously measured by the FLIPR Tetra. […] Each condition was measured in triplicate and repeated several times as further indicated (see Results).
# CXCR4 [2] = biological target: T1, CXCR4; test: CXCR4 internalization assay in SUP-T1 cells; format: cell-based; parameters: CXCR4 receptors endogenously expressed on SUP-T1 cells; endogenous in cells; host or cells: SUP-T1 (ATCC); settings: for induction of CXCR4 internalization (agonistic effect): in absence of CXCL12, data not shown
# Description: T-lymphoblastic SUP-T1 cells were washed twice in DPBS containing 2% FBS. Afterwards, cells were first incubated with the PE-labeled rat anti-human CXCR4 mAb (clone 1D9; 2 μg/ml in DPBS/2% FBS; BD Pharmingen) on ice for 45 minutes. […] SUP-T1 cells were subsequently washed once with ice cold DPBS and twice with ice cold assay buffer (see above) before being treated with test compound on ice for 15 minutes. […] Samples were immediately analyzed with the FACSCalibur flow cytometer (Becton Dickinson) whereby the measured fluorescence corresponds to the amount of […] CXCR4 receptors. Data were further analyzed with the FlowJo software.
# [3] = test system: CXCR4-positive Jurkat cells; test: cells; format: cell-based, human
# Description: Jurkat cells were washed twice in assay buffer (see above), dispensed into a 96-well plate (5x10^5 cells per well) containing serial dilutions of compounds (in assay buffer) and incubated at RT in the dark for 10 minutes. […] Suspensions of 1.87x10^4 cells were transferred to the chemotaxis insert plate. […] After removal of the insert plate, migrated cells were centrifuged and resuspended in DPBS containing flow cytometry cell counting beads ([…] Fluorescent Particles; Gentaur, London, UK). Both migrated cells and particles were counted by flow cytometry (FACSCanto II; Becton Dickinson). Each compound concentration was tested in triplicate. Data were analyzed using the FlowJo software and the total number of migrated cells was calculated, according to the counted and total number of beads present in the sample.
# HIV-1 NL4-3 (X4) [4] = test: microbe, parasite or virus in culture; format: cell-based
# Description: The anti-HIV replication assays in MT-4 cells and PHA-stimulated PBMCs have been described previously. The HIV-1 T-tropic molecular clone NL4-3 (X4) was obtained from the National Institute of Allergy and Infectious Disease (NIAID) AIDS reagent program (Bethesda, MD, USA). Briefly, 5x10^4 MT-4 cells (in cell culture medium) were treated with different concentrations of compound at 37°C for 30 minutes. Afterwards, a 50% tissue culture infectious dose of the NL4-3 viral stock was added to the cell-compound mixtures. Four days post infection, the cytopathic effect was evaluated microscopically and cell viability was assessed with the MTS method, as described above.
# In the antiviral assays, each condition was tested in duplicate.
# HIV-1 NL4-3 (X4) [5] = test: microbe, parasite or virus in culture; format: cell-based; remark: listed apart in the source
# Description: PHA-stimulated PBMCs at 5x10^5 cells per sample, pre-incubated with test compounds dissolved in cell culture medium containing IL-2 (2 ng/ml; […] After three days, fresh culture medium with IL-2 was added. Ten days post infection cell supernatant was collected for HIV-1 p24 core antigen enzyme-linked immunosorbent assay (ELISA; Perkin Elmer, Boston, MA, USA) according to the manufacturer’s protocol. In the antiviral assays, each condition was tested in duplicate.
# CXCR7 = biological target: T2, CXCR7 (Homo sapiens, UniProt P25106); test: CXCL12 binding on CXCR7-transfected U87 cells (U87.CD4.CXCR7); settings: data not shown
# T2 construct: expressed in transfected cells; host or cells: U87.CD4 cells transfected with pTEJ-8 plasmid carrying human CXCR7 cDNA
# CXCR4 [6] = biological target: T1, CXCR4; test: CXCL12^AF647 binding assay on Jurkat cells; settings: read-out: IC50 CXCL12-CXCR4 binding interaction
# Description: In brief, Jurkat cells were washed twice in assay buffer [Hank’s Balanced Salt Solution (HBSS; Thermo Fisher Scientific), 20 mM HEPES buffer (Thermo Fisher Scientific), 0.2% bovine serum albumin (Sigma-Aldrich), pH 7.4]. […] Afterwards, cells were washed twice in assay buffer and subsequently fixed in 1% paraformaldehyde in Dulbecco’s phosphate buffered saline (DPBS). Samples were analyzed with the FACSArray flow cytometer (Becton Dickinson, NJ, USA). Data were further analyzed with the FlowJo Software (Ashland, Oregon, USA).
# in vitro [7] = format: cell-based; settings: human
# Description: Freshly isolated peripheral blood mononuclear cells (PBMCs) were isolated out of buffy coats from healthy donors (Red Cross, Belgium). They were cultured in RPMI medium with 10% FBS, 2 mM L-glutamine and stimulated with 2 μg/ml phytohemagglutinin (PHA; Sigma-Aldrich) for three days before use in the HIV replication assays (see below).
# Jurkat cells (3x10^5 cells per well in culture medium) were incubated with serial dilutions of compound at room temperature (RT) for two hours. Cytotoxicity of the compounds was also evaluated at 37°C over a longer period of time in MT-4 cells (5x10^4 cells per well in culture medium, four day incubation) and PHA-stimulated PBMCs (5x10^5 cells per well in culture medium, ten day incubation) because these cell types were used in anti-HIV activity assays which last up to ten days (see below). Each condition was tested in duplicate. Cytotoxicity was evaluated microscopically and, in addition, cell viability was assessed using the colorimetric CellTiter 96 AQueous One Solution Cell Proliferation Assay (Promega, Fitchburg, WI, USA), which is based on the reduction of the tetrazolium salt MTS [3-(4,5-dimethylthiazol-2-yl)-5-(3-carboxymethoxyphenyl)-2-(4-sulfophenyl)-2H-tetrazolium] to formazan by metabolically active cells. Absorbance at 490 nm was measured with the VersaMax ELISA Microplate Reader (Molecular Devices, Sunnyvale, CA, USA). […]
# in vitro [8] = format: cell-based; settings: human; remark: listed apart in the source
# Description: Jurkat cells (3x10^5 cells per well in culture medium) were incubated with serial dilutions of compound at room temperature (RT) for two hours. Cytotoxicity of the compounds was also evaluated at 37°C over a longer period of time in MT-4 cells (5x10^4 cells per well in culture medium, four day incubation) and PHA-stimulated PBMCs (5x10^5 cells per well in culture medium, ten day incubation) because these cell types were used in anti-HIV activity assays which last up to ten days (see below). Each condition was tested in duplicate. Cytotoxicity was evaluated microscopically and, in addition, cell viability was assessed using the colorimetric CellTiter 96 AQueous One Solution Cell Proliferation Assay (Promega, Fitchburg, WI, USA), which is based on the reduction of the tetrazolium salt MTS [3-(4,5-dimethylthiazol-2-yl)-5-(3-carboxymethoxyphenyl)-2-(4-sulfophenyl)-2H-tetrazolium] to formazan by metabolically active cells. Absorbance at 490 nm was measured with the VersaMax ELISA Microplate Reader (Molecular Devices, Sunnyvale, CA, USA). The cytotoxic concentration 50 (CC50) of each compound was calculated based on the absorbance of negative (i.e. cells without compound) and positive (i.e. only culture medium) control samples.
# [9] = Homo sapiens, Jurkat, 2 h, read-out: IC50 Chemotaxis
# [10] = Human immunodeficiency virus 1, NL43, MT4, 96 h, MT-4 cells, four days post infection, MTS, mean ± SEM, read-out: IC50 HIV-1 (X4) NL4-3 replication, MT-4 cells
# [11] = Human immunodeficiency virus 1, NL43, PBMC, 240 h, PHA-stimulated PBMCs, ten days post infection, p24 Ag ELISA, mean ± SEM, read-out: IC50 HIV-1 (X4) NL4-3 replication, PHA-stimulated PBMCs
# T1 sequence (P61073 whole entry): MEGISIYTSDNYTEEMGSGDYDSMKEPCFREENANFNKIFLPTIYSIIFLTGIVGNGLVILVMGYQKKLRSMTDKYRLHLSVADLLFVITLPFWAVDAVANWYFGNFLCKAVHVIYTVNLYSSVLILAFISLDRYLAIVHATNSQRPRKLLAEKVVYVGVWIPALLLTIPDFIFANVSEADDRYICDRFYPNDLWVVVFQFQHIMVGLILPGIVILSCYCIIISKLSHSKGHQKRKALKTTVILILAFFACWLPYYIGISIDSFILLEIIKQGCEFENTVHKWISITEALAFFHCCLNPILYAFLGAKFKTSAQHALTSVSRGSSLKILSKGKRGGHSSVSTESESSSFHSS
# T2 sequence (P25106 whole entry): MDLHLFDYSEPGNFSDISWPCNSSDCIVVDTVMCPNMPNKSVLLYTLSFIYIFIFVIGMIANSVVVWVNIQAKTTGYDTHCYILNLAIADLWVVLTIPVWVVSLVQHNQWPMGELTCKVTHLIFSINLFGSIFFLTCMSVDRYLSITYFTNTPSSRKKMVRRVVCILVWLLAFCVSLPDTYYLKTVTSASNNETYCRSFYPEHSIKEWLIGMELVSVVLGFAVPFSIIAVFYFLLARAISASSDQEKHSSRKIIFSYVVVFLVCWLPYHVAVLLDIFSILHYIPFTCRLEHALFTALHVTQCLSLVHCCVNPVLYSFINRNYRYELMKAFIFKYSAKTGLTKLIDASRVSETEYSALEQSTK
molecule,measurement,setting,value
KGVSLSYRKRYSLSVGK-NH2 [CTCE-9908],agonist activity on intracellular calcium flux,CXCR4 [1]; 20 μM,this activity was lost
same,agonist activity on intracellular calcium flux,CXCR4 [1]; 100 μM,very weak agonist activity
same,induction of CXCR4 internalization (agonistic effect),CXCR4 [2]; 100 μM,absence of an agonistic effect
c1cc(CN2CCCNCCNCCCNCC2)ccc1CN1CCCNCCNCCCNCC1 [AMD3100],IC50,[3]; [9],1.43 µM
same,IC50,HIV-1 NL4-3 (X4) [4]; [10],0.0118 ± 0.0034 µM
same,IC50,HIV-1 NL4-3 (X4) [5]; [11],0.0149 ± 0.0032 µM
same,induction of CXCR4 internalization (agonistic effect),CXCR4 [2]; 50 μM,absence of an agonistic effect
N=C(N)NCCC[C@H](NC(=O)[C@@H]1CSSC[C@H](NC(=O)[C@H](Cc2ccc3ccccc3c2)NC(=O)[C@H](CCCNC(=N)N)NC(=O)[C@@H](N)CCCNC(=N)N)C(=O)N[C@@H](Cc2ccc(O)cc2)C(=O)N[C@@H](CCCNC(=N)N)C(=O)N[C@@H](CCCCN)C(=O)N[C@H](CCCCN)C(=O)N2CCC[C@H]2C(=O)N[C@@H](Cc2ccc(O)cc2)C(=O)N[C@@H](CCCNC(=N)N)C(=O)N[C@@H](CCCNC(N)=O)C(=O)N1)C(=O)O [T140] (H-RR[2Nal]CYRK[dK]PYR[Cit]CR-OH; disulfide 4-13 (inferred); N-terminus and C-terminus assumed),IC50,[3],0.0737 ± 0.026 µM
same,IC50,HIV-1 NL4-3 (X4) [4]; NL4-3 (X4),0.0135 ± 0.0071 µM
same,IC50,HIV-1 NL4-3 (X4) [5]; NL4-3 (X4),0.0104 ± 0.0048 µM
same,induction of CXCR4 internalization (agonistic effect),CXCR4 [2]; 50 μM,absence of an agonistic effect
NCCCCN(Cc1nc2ccccc2[nH]1)[C@H]1CCCc2cccnc21 [AMD11070],IC50,[3]; [9],0.0749 ± 0.0177 µM
same,IC50,HIV-1 NL4-3 (X4) [4]; [10],0.0119 ± 0.0046 µM
same,IC50,HIV-1 NL4-3 (X4) [5]; [11],0.0264 ± 0.0061 µM
same,induction of CXCR4 internalization (agonistic effect),CXCR4 [2]; 50 μM,absence of an agonistic effect
same,inhibition of CXCL12 binding on CXCR7,CXCR7,reduced CXCL12 binding on CXCR7 in the lower micromolar range
c1ccc(CNCc2ccc(CN3CCCNCCNCCCNCC3)cc2)nc1 [AMD3465],IC50,"[3]; Jurkat cells, 6.25 nM CXCL12, two hours, mean ± SEM, read-out: IC50 Chemotaxis",0.116 ± 0.0152 µM
same,IC50,"HIV-1 NL4-3 (X4) [4]; MT-4 cells, four days post infection, MTS, mean ± SEM, read-out: IC50 HIV-1 (X4) NL4-3 replication, MT-4 cells",0.0218 ± 0.0101 µM
same,IC50,"HIV-1 NL4-3 (X4) [5]; PHA-stimulated PBMCs, ten days post infection, p24 Ag ELISA, mean ± SEM, read-out: IC50 HIV-1 (X4) NL4-3 replication, PHA-stimulated PBMCs",0.0272 ± 0.0087 µM
same,IC50,"CXCR4 [1]; U87.CD4.CXCR4 cells, 6.25 nM CXCL12, mean ± SEM",0.0534 ± 0.0243 µM
same,IC50,"CXCR4 [6]; Jurkat cells, 2.9 nM CXCL12^AF647, mean ± SEM",0.0021 ± 0.00024 µM
same,induction of CXCR4 internalization (agonistic effect),CXCR4 [2]; 50 μM,absence of an agonistic effect
same,IC50,"CXCR4 [2]; SUP-T1 cells, 6.25 nM CXCL12, 37°C 30 minutes, mean ± SEM",0.0673 ± 0.0113 µM
CC(C)=CCC[C@]1(C)C=Cc2c(O)c3c(c(CC=C(C)C)c2O1)O[C@]12C(=C[C@@H]4C[C@H]1C(C)(C)O[C@@]2(C/C=C(/C)C(=O)O)C4=O)C3=O [gambogic acid],IC50,[3]; [9],1.89 µM
same,IC50,HIV-1 NL4-3 (X4) [4]; [10],> 0.376 µM
same,IC50,HIV-1 NL4-3 (X4) [5]; [11],> 0.225 µM
same,IC50,CXCR4 [1],4.37 µM
same,CC50 at 10 days,in vitro [7],~0.3 µM
same,IC50,CXCR4 [6],7.06 µM
same,CC50 at 2 h,in vitro [8],10 µM
same,CC50 at 4 days,in vitro [8],~0.3 µM
same,IC50,CXCR4 [2],> 10 µM
same,induction of CXCR4 internalization (agonistic effect),CXCR4 [2]; 10 μM,absence of an agonistic effect

# From publication PMC5391968, “Comparison of cell-based assays for the identification and evaluation of competitive CXCR4 inhibitors” (PLoS ONE, 2017)
